Here are results for twelve compounds from US20250270200A1, “CTPS1 INHIBITORS AND USES THEREOF” (Nimbus Clotho, Inc., priority 2022, published 2025).

Counter-ions that a name gives are not always drawn. Bounds are passed on as bounds.

This assay deals with T1, human CTPS1 (Homo sapiens, UniProt P17812).
T1 sequence (P17812 1-591): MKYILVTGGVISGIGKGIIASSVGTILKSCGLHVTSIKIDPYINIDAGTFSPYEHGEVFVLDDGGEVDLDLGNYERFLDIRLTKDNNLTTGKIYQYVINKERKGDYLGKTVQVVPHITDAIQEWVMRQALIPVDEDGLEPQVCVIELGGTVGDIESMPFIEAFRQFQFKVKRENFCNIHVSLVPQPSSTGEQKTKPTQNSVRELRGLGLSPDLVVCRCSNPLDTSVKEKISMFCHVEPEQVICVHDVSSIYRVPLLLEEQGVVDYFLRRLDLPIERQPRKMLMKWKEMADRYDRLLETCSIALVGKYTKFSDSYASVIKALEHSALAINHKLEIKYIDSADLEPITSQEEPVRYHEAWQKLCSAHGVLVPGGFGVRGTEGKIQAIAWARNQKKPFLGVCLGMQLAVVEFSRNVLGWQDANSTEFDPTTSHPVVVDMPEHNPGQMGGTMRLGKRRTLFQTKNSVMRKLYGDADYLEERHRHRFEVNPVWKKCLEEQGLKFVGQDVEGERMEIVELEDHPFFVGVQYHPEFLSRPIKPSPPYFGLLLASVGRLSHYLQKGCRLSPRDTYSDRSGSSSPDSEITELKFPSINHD
Briefly: ADP-Glo assay, human CTPS1 enzyme inhibition. The assay is classed as biochemical. The conditions noted are these: wild-type human CTPS1, 25 nM enzyme; ADP-Glo; read-out: ADP-Glo_WT_hCTPS1—25 nM_IC50 (IC50). In outline:
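Full-length tagged human CTPS1 (25 nM) pre-incubated 10 min at 25° C with compound, then 10 min with ATP (120 μM) and UTP (160 μM); reaction started with L-glutamine (100 μM) and GTP (60 μM), 1% DMSO, in HEPES pH 7.4, 10 mM Mg2+, 5 mM KCl, 2 mM DTT. Run within linear phase at 25° C; ADP measured by ADP-Glo luminescence.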
For orientation: IC50 means the point on the concentration scale where inhibition reaches its midpoint. Consider `CCOc1cncc(-c2cnc(C(=O)N[C@H](c3cc(NS(=O)(=O)C4CC4)ccn3)[C@@H](C)CO)s2)n1` [I-228, N-((1S,2R)-1-(4-(cyclopropanesulfonamido)pyridin-2-yl)-3-hydroxy-2-methylpropyl)-5-(6-ethoxypyrazin-2-yl)thiazole-2-carboxamide], for which the IC50 fell in the range of 5 to 25 nM.

`CCOc1cncc(-c2ccc(C(=O)N[C@@H](CN3CCOCC3)c3cc(NS(=O)(=O)C4CC4)ccn3)c(F)c2)n1` [I-143, (S)-N-(1-(4-(cyclopropanesulfonamido)pyridin-2-yl)-2-morpholinoethyl)-4-(6-ethoxypyrazin-2-yl)-2-fluorobenzamide]: the IC50 lay in the range of 50 to 100 nM.

On to `CCOc1cncc(-c2cnc(C(=O)N[C@@H](CCN3CCCC4(CC4)C3)c3cc(NS(=O)(=O)C4CC4)ccn3)s2)n1` (single isomer, unassigned) [I-18], for which the IC50 is over 100 nM.

For the compound `CCOc1cncc(-c2cnc(C(=O)N[C@H](CN3C[C@H]4C[C@@H]3CO4)c3cccc(NS(=O)(=O)C(F)F)c3)s2)n1` [I-205, N-((S)-2-((1R,4R)-2-oxa-5-azabicyclo[2.2.1]heptan-5-yl)-1-(3-((difluoromethyl)sulfonamido)phenyl)ethyl)-5-(6-ethoxypyrazin-2-yl)thiazole-2-carboxamide, formic acid salt], the IC50 was in the range of 25 to 50 nM.

As for `CCOc1cncc(-c2cnc(C(=O)N[C@H](CN3CC[C@@](C)(O)C3)c3cc(NS(=O)(=O)C4CC4)ccn3)s2)n1` [I-132, N-((R)-1-(4-(cyclopropanesulfonamido)pyridin-2-yl)-2-((R)-3-hydroxy-3-methylpyrrolidin-1-yl)ethyl)-5-(6-ethoxypyrazin-2-yl)thiazole-2-carboxamide], the IC50 is 5 to 25 nM.

With `CCOc1cncc(-c2cnc(C(=O)N[C@]3(c4cccc(NS(=O)(=O)C(F)F)c4)C[C@H](O)C3)s2)n1` [I-202, N-((1s,3s)-1-(3-((difluoromethyl)sulfonamido)phenyl)-3-hydroxycyclobutyl)-5-(6-ethoxypyrazin-2-yl)thiazole-2-carboxamide], the IC50 was in the range of 5 to 25 nM.

With `CCOc1cncc(-c2cnc(C(=O)NCc3cncc(NS(=O)(=O)C4CC4)n3)s2)n1` [I-180, N-((6-(cyclopropanesulfonamido)pyrazin-2-yl)methyl)-5-(6-ethoxypyrazin-2-yl)thiazole-2-carboxamide], the half-inhibitory concentration (IC50) fell in the range of 5 to 25 nM.

`CCOc1cncc(-c2cnc(C(=O)N[C@@H](CN3CCOC[C@@H]3C)c3cc(NS(=O)(=O)C4CC4)ccn3)s2)n1` (single isomer, unassigned) [I-34]: the IC50 lay within 5 to 25 nM.

For `COC[C@H](NC(=O)c1ccc(-c2cnn3ccc(Cl)cc23)cc1F)c1cc(NS(=O)(=O)C2CC2)ccn1` [I-284, (R)-4-(5-chloropyrazolo[1,5-a]pyridin-3-yl)-N-(1-(4-(cyclopropanesulfonamido)pyridin-2-yl)-2-methoxyethyl)-2-fluorobenzamide], the concentration for half-maximal inhibition (IC50) was over 100 nM.

For the compound `CCOc1cncc(-c2cnc(C(=O)N[C@H](c3cc(NS(=O)(=O)C4CC4)ccn3)[C@H](C)N3C[C@H]4C[C@@H]3CO4)s2)n1` [I-166, N-((1S,2S)-2-((1R,4R)-2-oxa-5-azabicyclo[2.2.1]heptan-5-yl)-1-(4-(cyclopropanesulfonamido)pyridin-2-yl)propyl)-5-(6-ethoxypyrazin-2-yl)thiazole-2-carboxamide], the half-inhibitory concentration (IC50) was in the range of 50 to 100 nM.

As to `CCOc1cncc(-c2cnc(C(=O)N[C@H](c3cc(NS(=O)(=O)C4CC4)ccn3)[C@@H]3COCCO3)s2)n1` [I-74, N-((R)-(4-(cyclopropanesulfonamido)pyridin-2-yl)((R)-1,4-dioxan-2-yl)methyl)-5-(6-ethoxypyrazin-2-yl)thiazole-2-carboxamide], the half-maximal inhibitory concentration (IC50) was 5 to 25 nM.

On to `CCOc1cncc(-c2cnc(C(=O)N[C@@H](c3cccc(NS(=O)(=O)C(F)F)c3)[C@H]3COCCO3)s2)n1` [I-201, N-((S)-(3-((difluoromethyl)sulfonamido)phenyl)((S)-1,4-dioxan-2-yl)methyl)-5-(6-ethoxypyrazin-2-yl)thiazole-2-carboxamide], for which the concentration for half-maximal inhibition (IC50) was 5 to 25 nM.
